37 compounds from US4870175A, “6-substituted alkoxy-2-oxo-1,2-dihydroquinoxaline derivatives” (Toyo Jozo Kabushiki Kaisha, priority 1987, dated 1989) can be followed below.

Read-outs that look alike come from different tables or passages of the source.

The subject of assay [1] is cyclic AMP/phosphodiesterase. The assay is described as follows: Inhibitory action of cyclic AMP/phosphodiesterase (crude enzyme fraction from sonicated rabbit platelets). It counts as biochemical. Conditions: 40 min. The protocol:
The pharmacological activity of the present compounds [1] is illustrated below. (1) Inhibitory action of cyclic AMP/phosphodiesterase:
A mixture of 2 mM MgCl2 /40 mM Tris-buffer (pH 7.5) 700 μl, enzyme solution (a crude enzyme fraction obtained from sonicated rabbit platelets) 100 μl, and a test sample solution (compound [1] dissolved in 50% aqueous methanol) 100 μl is incubated at 30° C. for 5 mins. 3', 5'-cyclic AMP 100 μl (50 μg) is added thereto and the mixture is further incubated for 40 mins. The reaction is stopped by heating 100° C. for 5 mins. The amount of 5'-AMP in the supernatant obtained by centrifugation at 3000 rpm for 5 mins. is measured using HPLC.
As shown in that table, the compound of the present invention has cyclic AMP/phosphodiesterase inhibitory activity at 1-10 μg/ml.

The test system of assay [2] is rabbit platelet-rich plasma. As to the kind of experiment: Platelet aggregation inhibition (rabbit platelet-rich plasma, aggregometer). It counts as cell-based. As to conditions: Oryctolagus cuniculus, compound final concentration 10 μM, read-out: Inhibitory ratio. The protocol: (2) Platelet aggregation inhibition:
A rabbit platelet-rich plasma (5×10^5 /mm^3), to which was added 1/10 volume of a 3.8% sodium citrate solution, 216 μl, is incubated in an aggregometer at 37° C., 1000 rpm, for 3 mins. A test sample solution 12 μl (final concentration 10 μM) is added thereto and the mixture is further incubated for 3 mins., and collagen (aggregation agent) 2.5 μg/ml, ADP 2.5 μM, platelet activating factor (PAF) 0.05 μg/ml or 0.25 mM arachidonic acid (A.A.) 12 μl is added thereto as an aggregating agent, and the platelet aggregation activity is measured.

[3] abbreviates: aggregating agent PAF 0.05 μg/ml.
The mark [4] stands for this setting: aggregating agent arachidonic acid (A.A.) 0.25 mM.
[5] abbreviates: aggregating agent collagen 2.5 μg/ml.

As for `Cc1nc2cc(OCCCC(=O)N(C)C3CCCCC3)ccc2[nH]c1=O` [Compound 965], the Inhibitory ratio in assay [1] (1 μg/ml) worked out at 68.9%; in assay [1] (10 μg/ml), 87.3%.
For `CCCCCCc1nc2cc(OCCCC(=O)OCC)ccc2[nH]c1=O` [Compound 949], in that order: 40.9% and 53.7%.
Turning to `O=c1cnc2cc(OCCCCc3nnnn3C3CCCCC3)ccc2[nH]1` [Compound 913, 6-[4-(1-cyclohexyl-tetrazole-5-yl)-butoxy]-2-oxo-1,2-dihydroquinoxaline], the Inhibitory ratio in assay [1] (1 μg/ml) was determined as 19.2%; in assay [1] (10 μg/ml), 80.3%.
For `CCN(C(=O)CCCCOc1ccc2[nH]c(=O)cnc2c1)C1CCCCC1` [Compound 921], the figures for the Inhibitory ratio in assay [1] (1 μg/ml), in assay [1] (10 μg/ml) and in assay [1] (100 μg/ml) were 49.8%, 84.5% and 93.0%, respectively. Also, the inhibition at 10 µM was 62.6% in assay [2] (aggregating agent ADP 2.5 μM), 35.3% in assay [2] (setting [3]), 44.7% in assay [2] (setting [4]) and 81% in assay [2] (setting [5]).
For `CCN(CC)C(=O)CCCOc1ccc2[nH]c(=O)c(-c3ccccc3)nc2c1` [Compound 988], the Inhibitory ratio was 46.4% in assay [1] (1 μg/ml) and 76.9% in assay [1] (10 μg/ml).
For `COc1ccccc1N1CCN(C(=O)CCCOc2ccc3[nH]c(=O)c(C)nc3c2)CC1` [Compound 968], in that order: 17.1% and 60.3%.
As for `Cc1nc2cc(OCCCC(=O)N(CCO)C3CCCCC3)ccc2[nH]c1=O` [Compound 966], the Inhibitory ratio was 54.5% in assay [1] (1 μg/ml), 86.6% in assay [1] (10 μg/ml) and 93.7% in assay [1] (100 μg/ml). In assay [2] (setting [5]), the inhibition at 10 µM came to 83.5%.
As for `CN(C(=O)CCCOc1ccc2[nH]c(=O)c(-c3ccccc3)nc2c1)C1CCCCC1` [Compound 986], the Inhibitory ratio in assay [1] (1 μg/ml) is on record as 66.2%; in assay [1] (10 μg/ml), 80.5%.
As to `CCCCCCc1nc2cc(OCCCC(=O)N(CCO)C3CCCCC3)ccc2[nH]c1=O` [Compound 978], the Inhibitory ratio in assay [1] (1 μg/ml) stood at 26.2%; in assay [1] (10 μg/ml), 40.1%.
For `O=C(CCCCOc1ccc2[nH]c(=O)cnc2c1)N(Cc1ccccc1)C1CCCCC1` [Compound 922], the results for the Inhibitory ratio in assay [1] (1 μg/ml), in assay [1] (10 μg/ml) and in assay [1] (100 μg/ml) were 61.7%, 88.1% and 91.1%, respectively.
For `COc1ccccc1N1CCN(C(=O)CCCOc2ccc3[nH]c(=O)cnc3c2)CC1` [Compound 918], in that order: 19.8%, 61.0% and 87.9%.
As to `CN(C(=O)CCCCOc1ccc2[nH]c(=O)cnc2c1)C1CCCCC1` [Compound 920], the Inhibitory ratio in assay [1] (1 μg/ml) is given as 42.9%; in assay [1] (10 μg/ml) it was 81.7%; in assay [1] (100 μg/ml) it was 75.1%. For the same compound, the inhibition at 10 µM in assay [2] (aggregating agent ADP 2.5 μM) worked out at 49.3%; in assay [2] (setting [3]), 26.9%; in assay [2] (setting [4]), 30.2%; in assay [2] (setting [5]), 52.5%.
In the case of `CCCc1nc2cc(OCCCC(=O)N(CCO)C3CCCCC3)ccc2[nH]c1=O` [Compound 975], the Inhibitory ratio in assay [1] (1 μg/ml) was found to be 59.5%; in assay [1] (10 μg/ml), 88.9%; in assay [1] (100 μg/ml), 93.5%.
Consider `O=C(CCCCOc1ccc2[nH]c(=O)cnc2c1)N(CCO)C1CCCCC1` [Compound 923], for which the Inhibitory ratio in assay [1] (1 μg/ml) came to 43.7%; in assay [1] (10 μg/ml), 81.8%; in assay [1] (100 μg/ml), 92.4%. The inhibition at 10 µM turned out to be 68% in assay [2] (aggregating agent ADP 2.5 μM), 29% in assay [2] (setting [3]), 56.7% in assay [2] (setting [4]) and 75.7% in assay [2] (setting [5]).
Turning to `CCCc1nc2cc(OCCCC(=O)N(C)C3CCCCC3)ccc2[nH]c1=O` [Compound 974], the Inhibitory ratio in assay [1] (1 μg/ml) is recorded as 73.2%; in assay [1] (10 μg/ml), 91.7%.
As for `Cc1nc2cc(OCCCC(=O)O)ccc2[nH]c1=O` [Compound 955, 3-methyl-6-(3-carboxypropoxy)-2-oxo-1,2-dihydroquinoxaline], the Inhibitory ratio in assay [1] (1 μg/ml) stood at 44.2%; in assay [1] (10 μg/ml) it was 82.3%; in assay [1] (100 μg/ml), 93.0%.
As for `CCOC(=O)CCCOc1ccc2[nH]c(=O)c(-c3ccccc3)nc2c1` [Compound 954], the Inhibitory ratio stood at 42.4% in assay [1] (1 μg/ml) and 54.2% in assay [1] (10 μg/ml).
On to `CCOC(=O)CCCOc1ccc2[nH]c(=O)cnc2c1` [Compound 914, 6-(3-ethoxycarbonylpropoxy)-2-oxo-1,2-dihydroquinoxaline], for which the values for the Inhibitory ratio in assay [1] (1 μg/ml), in assay [1] (10 μg/ml) and in assay [1] (100 μg/ml) were 18.1%, 34.3% and 54.4%, respectively.
Regarding `Cc1nc2cc(OCCCC(=O)N3CCC(c4ccccc4)CC3)ccc2[nH]c1=O` [Compound 970], the Inhibitory ratio in assay [1] (1 μg/ml) is given as 24.1%; in assay [1] (10 μg/ml), 51.5%.
For `O=C(CCCOc1ccc2[nH]c(=O)c(-c3ccccc3)nc2c1)N(CCO)C1CCCCC1` [Compound 987], the values for the Inhibitory ratio in assay [1] (1 μg/ml), in assay [1] (10 μg/ml) and in assay [1] (100 μg/ml) were 57.4%, 83.3% and 90.2%, respectively.
As for `CCc1nc2cc(OCCCC(=O)O)ccc2[nH]c1=O` [Compound 956], the Inhibitory ratio is 83.9% in assay [1] (1 μg/ml), 92.9% in assay [1] (10 μg/ml) and 95.0% in assay [1] (100 μg/ml).
For the compound `CCCCc1nc2cc(OCCCC(=O)OCC)ccc2[nH]c1=O` [Compound 948], the Inhibitory ratio was determined as 62.9% in assay [1] (1 μg/ml), 87.9% in assay [1] (10 μg/ml) and 92.7% in assay [1] (100 μg/ml).
Regarding `CCCCc1nc2cc(OCCCC(=O)N(C)C3CCCCC3)ccc2[nH]c1=O` [Compound 976], the Inhibitory ratio in assay [1] (1 μg/ml) worked out at 51.1%; in assay [1] (10 μg/ml), 84.5%.
On to `O=C(O)CCCOc1ccc2[nH]c(=O)cnc2c1` [Compound 938, 6-(3-carboxypropoxy)-2-oxo-1,2-dihydroquinoxaline], for which the Inhibitory ratio in assay [1] (1 μg/ml) amounted to 17.9%; in assay [1] (10 μg/ml) it was 63.1%; in assay [1] (100 μg/ml) it was 88.2%.
For `CCN(CC)C(=O)CCCOc1ccc2[nH]c(=O)c(C)nc2c1` [Compound 967], in that order: 38.0%, 81.0% and 92.8%.
`Cc1nc2cc(OCCCC(=O)N(Cc3ccccc3)C3CCCCC3)ccc2[nH]c1=O` [Compound 969]: the Inhibitory ratio is 72.7% in assay [1] (1 μg/ml) and 82.5% in assay [1] (10 μg/ml).
With `CCCCCCCCCc1nc2cc(OCCCC(=O)O)ccc2[nH]c1=O` [Compound 960], the results for the Inhibitory ratio in assay [1] (1 μg/ml), in assay [1] (10 μg/ml) and in assay [1] (100 μg/ml) were 34.8%, 61.7% and 87.4%, respectively.
For `O=C(CCCOc1ccc2[nH]c(=O)cnc2c1)N(Cc1ccccc1)C1CCCCC1` [Compound 916], in that order: 47.3%, 78.0% and 85.7%.
Take `CCc1nc2cc(OCCCC(=O)N(C)C3CCCCC3)ccc2[nH]c1=O` [Compound 971]: the Inhibitory ratio in assay [1] (1 μg/ml) turned out to be 84.4%; in assay [1] (10 μg/ml) it was 93.0%.
Turning to `CCOC(=O)CCCCOc1ccc2[nH]c(=O)cnc2c1` [Compound 919], the results for the Inhibitory ratio in assay [1] (1 μg/ml), in assay [1] (10 μg/ml) and in assay [1] (100 μg/ml) were 23.9%, 65.2% and 92.4%, respectively.
As for `CCCc1nc2cc(OCCCC(=O)O)ccc2[nH]c1=O` [Compound 957], the values for the Inhibitory ratio in assay [1] (1 μg/ml), in assay [1] (10 μg/ml) and in assay [1] (100 μg/ml) were 71.4%, 90.7% and 94.0%, respectively.
Regarding `O=C(O)CCCOc1ccc2[nH]c(=O)c(-c3ccccc3)nc2c1` [Compound 964], the figures for the Inhibitory ratio in assay [1] (1 μg/ml), in assay [1] (10 μg/ml) and in assay [1] (100 μg/ml) were 43.8%, 78.8% and 90.5%, respectively.
For `COc1ccccc1N1CCN(C(=O)CCCCOc2ccc3[nH]c(=O)cnc3c2)CC1` [Compound 924], in that order: 24.6%, 63.5% and 70.2%.
With `CCCCc1nc2cc(OCCCC(=O)O)ccc2[nH]c1=O` [Compound 958], the Inhibitory ratio in assay [1] (1 μg/ml) came out at 69.9%; in assay [1] (10 μg/ml), 91.4%; in assay [1] (100 μg/ml), 93.7%.
For `CCOC(=O)CCCCOc1ccc2c(c1)NCC(=O)N2` [Compound 927], in that order: 10.5%, 47.7% and 76.1%.
As for `CCCCCCc1nc2cc(OCCCC(=O)O)ccc2[nH]c1=O` [Compound 959], the Inhibitory ratio in assay [1] (1 μg/ml) was 43.4%; in assay [1] (10 μg/ml) it was 80.5%; in assay [1] (100 μg/ml), 91.0%.
Regarding `CCc1nc2cc(OCCCC(=O)N3CCN(c4ccccc4OC)CC3)ccc2[nH]c1=O` [Compound 973], the Inhibitory ratio came out at 37.6% in assay [1] (1 μg/ml) and 42.2% in assay [1] (10 μg/ml).
